Experimental data from patent US7387997B2 (University of Utah, priority 2004, dated 2008).
pIC50, pKi: −log10 of the molar value. Where a SMILES comes first, the peptide text is derived from it. Bridges are numbered along the chain shown (N, C = ends).

Experiments:
Rat α3β2 nAChR = target: T1, Rat α3β2 nAChR (Rattus norvegicus, UniProt P04757+P12390); experiment: cell-based; type: cell-based
T1 construct: expressed in transfected cells; host or cells: Xenopus laevis oocytes, cRNA injected

[1] = target: Mouse CNS α-MII Site (putative α6β2* nAChRs); type: binding
Rat α6/α3β2β3 nAChR = target: T2, Rat α6/α3β2β3 nAChR (Rattus norvegicus, UniProt P04757+P12390+P43143); experiment: cell-based; type: cell-based
T2 construct: amino acids 1 to 237 of the rat α6 subunit protein; amino acids 233 to 499 of the rat α3 subunit protein; expressed in transfected cells; host or cells: Xenopus laevis oocytes, cRNA injected (pT7TS/rα6α3 for the chimera)

α4β2 nAChR = target: T3, α4β2 nAChR (Rattus norvegicus, UniProt P09483+P12390); type: cell-based
T3 construct: expressed in transfected cells; host or cells: Xenopus laevis oocytes, cRNA injected
T3 sequence (P09483 31-630 limits assumed): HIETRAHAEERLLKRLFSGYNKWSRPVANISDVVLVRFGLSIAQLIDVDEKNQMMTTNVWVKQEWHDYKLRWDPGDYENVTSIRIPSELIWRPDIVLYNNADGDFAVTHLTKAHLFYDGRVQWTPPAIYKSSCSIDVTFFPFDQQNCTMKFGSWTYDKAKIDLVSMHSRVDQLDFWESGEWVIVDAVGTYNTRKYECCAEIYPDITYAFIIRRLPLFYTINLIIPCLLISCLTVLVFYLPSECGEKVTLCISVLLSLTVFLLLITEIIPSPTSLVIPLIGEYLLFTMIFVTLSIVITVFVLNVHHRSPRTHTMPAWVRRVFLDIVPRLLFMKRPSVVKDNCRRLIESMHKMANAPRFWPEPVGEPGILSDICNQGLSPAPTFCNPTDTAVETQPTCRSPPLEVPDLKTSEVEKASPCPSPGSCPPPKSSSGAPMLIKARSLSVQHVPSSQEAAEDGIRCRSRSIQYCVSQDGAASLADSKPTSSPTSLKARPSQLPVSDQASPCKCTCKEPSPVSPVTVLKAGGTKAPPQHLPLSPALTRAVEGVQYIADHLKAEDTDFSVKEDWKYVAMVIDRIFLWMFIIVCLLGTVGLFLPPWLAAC
T3 sequence (P12390 25-500 limits assumed): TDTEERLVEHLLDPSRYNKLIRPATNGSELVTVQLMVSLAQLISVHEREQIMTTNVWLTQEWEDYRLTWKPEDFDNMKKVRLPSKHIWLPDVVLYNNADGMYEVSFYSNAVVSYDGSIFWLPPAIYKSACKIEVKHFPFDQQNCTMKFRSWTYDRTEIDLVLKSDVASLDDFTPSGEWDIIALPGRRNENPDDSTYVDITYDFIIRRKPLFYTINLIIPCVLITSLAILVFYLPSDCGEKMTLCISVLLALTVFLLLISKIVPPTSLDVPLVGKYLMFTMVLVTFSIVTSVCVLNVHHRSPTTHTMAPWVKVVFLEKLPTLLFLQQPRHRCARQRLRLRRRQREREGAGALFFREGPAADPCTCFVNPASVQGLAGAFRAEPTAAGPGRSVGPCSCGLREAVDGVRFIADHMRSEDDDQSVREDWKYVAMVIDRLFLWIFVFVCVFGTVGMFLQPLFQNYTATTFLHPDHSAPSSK

T1 sequence (P04757 26-499 limits assumed): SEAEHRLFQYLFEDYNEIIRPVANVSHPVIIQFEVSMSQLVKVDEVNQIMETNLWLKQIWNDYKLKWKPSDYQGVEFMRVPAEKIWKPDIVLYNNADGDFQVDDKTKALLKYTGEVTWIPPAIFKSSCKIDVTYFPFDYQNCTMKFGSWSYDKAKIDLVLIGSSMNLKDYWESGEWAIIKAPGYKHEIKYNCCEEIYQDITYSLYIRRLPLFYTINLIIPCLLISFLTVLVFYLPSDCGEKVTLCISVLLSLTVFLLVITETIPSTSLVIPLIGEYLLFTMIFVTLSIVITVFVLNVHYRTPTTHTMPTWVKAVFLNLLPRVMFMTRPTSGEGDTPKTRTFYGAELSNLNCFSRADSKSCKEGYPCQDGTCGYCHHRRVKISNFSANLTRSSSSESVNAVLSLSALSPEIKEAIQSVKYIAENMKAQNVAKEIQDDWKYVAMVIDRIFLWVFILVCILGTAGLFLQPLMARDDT
T1 sequence (P12390 25-500 limits assumed): as the sequence (P12390 25-500 limits assumed) above
T2 sequence (P43143 31-237 limits assumed): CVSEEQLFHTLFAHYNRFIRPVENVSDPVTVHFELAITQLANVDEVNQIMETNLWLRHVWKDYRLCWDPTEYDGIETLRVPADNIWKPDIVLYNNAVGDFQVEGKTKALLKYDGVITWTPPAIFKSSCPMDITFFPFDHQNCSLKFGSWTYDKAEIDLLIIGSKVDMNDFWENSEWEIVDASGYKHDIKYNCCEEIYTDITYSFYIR
T2 sequence (P04757 233-499 limits assumed): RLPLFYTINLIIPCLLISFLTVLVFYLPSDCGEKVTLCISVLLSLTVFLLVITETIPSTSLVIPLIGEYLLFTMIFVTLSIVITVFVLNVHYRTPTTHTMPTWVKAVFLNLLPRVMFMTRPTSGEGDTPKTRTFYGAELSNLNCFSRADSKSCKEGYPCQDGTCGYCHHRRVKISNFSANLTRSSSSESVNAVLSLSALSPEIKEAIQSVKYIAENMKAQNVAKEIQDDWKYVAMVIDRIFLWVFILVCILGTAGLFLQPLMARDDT
T2 sequence (P12390 25-500 limits assumed): as the sequence (P12390 25-500 limits assumed) above

## CC(C)C[C@@H]1NC(=O)[C@H](CC(N)=O)NC(=O)[C@H](CO)NC(=O)[C@H](Cc2c[nH]cn2)NC(=O)[C@H](CCC(=O)O)NC(=O)[C@H](CC(C)C)NC(=O)[C@H](Cc2c[nH]cn2)NC(=O)[C@@H]2CSSC[C@H](NC(=O)CN)C(=O)N[C@@H](CSSC[C@@H](C(N)=O)NC1=O)C(=O)N[C@@H](CO)C(=O)N[C@@H](CC(N)=O)C(=O)N1CCC[C@H]1C(=O)N[C@@H](C(C)C)C(=O)N2 [MII, reference compound]
Rat α3β2 nAChR
  Hill slope, α3β2: 0.75±0.13
[1]
  pKi: 9.66

## CC(C)C[C@@H]1NC(=O)[C@H](Cc2c[nH]cn2)NC(=O)[C@@H]2CSSC[C@H](NC(=O)CN)C(=O)N[C@@H](CSSC[C@@H](C(N)=O)NC(=O)[C@H](C)NC(=O)[C@H](CC(N)=O)NC(=O)[C@H](CO)NC(=O)[C@H](Cc3c[nH]cn3)NC(=O)[C@H](C)NC1=O)C(=O)N[C@@H](CO)C(=O)N[C@@H](CC(N)=O)C(=O)N1CCC[C@H]1C(=O)N[C@@H](C(C)C)C(=O)N2 [MII[E11A; L15A]] (H-GCCSNPVCHLAHSNAC-NH2; disulfide 2-8, 3-16)
Rat α3β2 nAChR
  pIC50: 7.30
  Ratio IC50 α3β2/IC50 α6/α3β2β3: 121
Rat α6/α3β2β3 nAChR
  pIC50: 9.38

## CC(C)C[C@@H]1NC(=O)[C@H](C)NC(=O)[C@H](CO)NC(=O)[C@H](Cc2c[nH]cn2)NC(=O)[C@H](CCC(=O)O)NC(=O)[C@H](CC(C)C)NC(=O)[C@H](Cc2c[nH]cn2)NC(=O)[C@@H]2CSSC[C@H](NC(=O)CN)C(=O)N[C@@H](CSSC[C@@H](C(N)=O)NC1=O)C(=O)N[C@@H](CO)C(=O)N[C@@H](CC(N)=O)C(=O)N1CCC[C@H]1C(=O)N[C@@H](C(C)C)C(=O)N2 [MII[N14A]] (H-GCCSNPVCHLEHSALC-NH2; disulfide 2-8, 3-16)
Rat α3β2 nAChR
  pIC50: 7.59
  Ratio IC50 α3β2/IC50 α6/α3β2β3: 24.2
Rat α6/α3β2β3 nAChR
  pIC50: 8.97

## CC(C)[C@@H]1NC(=O)[C@@H]2CCCN2C(=O)[C@H](CC(N)=O)NC(=O)[C@H](CO)NC(=O)[C@@H]2CSSC[C@@H](C(N)=O)NC(=O)[C@H](C)NC(=O)[C@H](CC(N)=O)NC(=O)[C@H](CO)NC(=O)[C@H](Cc3c[nH]cn3)NC(=O)[C@H](CCC(=O)O)NC(=O)[C@H](C)NC(=O)[C@H](Cc3c[nH]cn3)NC(=O)[C@H](CSSC[C@H](NC(=O)CN)C(=O)N2)NC1=O [MII[L10A; L15A]] (H-GCCSNPVCHAEHSNAC-NH2; disulfide 2-8, 3-16)
Rat α3β2 nAChR
  pIC50: 7.76
  Ratio IC50 α3β2/IC50 α6/α3β2β3: 9.56
Rat α6/α3β2β3 nAChR
  pIC50: 8.74

## CC(C)C[C@@H]1NC(=O)[C@H](CC(N)=O)NC(=O)[C@H](C)NC(=O)[C@H](Cc2c[nH]cn2)NC(=O)[C@H](CCC(=O)O)NC(=O)[C@H](CC(C)C)NC(=O)[C@H](Cc2c[nH]cn2)NC(=O)[C@@H]2CSSC[C@H](NC(=O)CN)C(=O)N[C@@H](CSSC[C@@H](C(N)=O)NC1=O)C(=O)N[C@@H](CO)C(=O)N[C@@H](CC(N)=O)C(=O)N1CCC[C@H]1C(=O)N[C@@H](C(C)C)C(=O)N2 [MII[S13A]] (H-GCCSNPVCHLEHANLC-NH2; disulfide 2-8, 3-16)
Rat α3β2 nAChR
  pIC50: 8.60
  Ratio IC50 α3β2/IC50 α6/α3β2β3: 3.85
Rat α6/α3β2β3 nAChR
  pIC50: 9.18

## CC(C)C[C@@H]1NC(=O)[C@H](CC(N)=O)NC(=O)[C@H](CO)NC(=O)[C@H](Cc2c[nH]cn2)NC(=O)[C@H](CCC(=O)O)NC(=O)[C@H](C)NC(=O)[C@H](Cc2c[nH]cn2)NC(=O)[C@@H]2CSSC[C@H](NC(=O)CN)C(=O)N[C@@H](CSSC[C@@H](C(N)=O)NC1=O)C(=O)N[C@@H](CO)C(=O)N[C@@H](CC(N)=O)C(=O)N1CCC[C@H]1C(=O)N[C@@H](C(C)C)C(=O)N2 [MII[L10A]] (H-GCCSNPVCHAEHSNLC-NH2; disulfide 2-8, 3-16)
Rat α3β2 nAChR
  pIC50: 8.83
  Ratio IC50 α3β2/IC50 α6/α3β2β3: 3.05
Rat α6/α3β2β3 nAChR
  pIC50: 9.32

## CC(C)C[C@@H]1NC(=O)[C@H](Cc2c[nH]cn2)NC(=O)[C@@H]2CSSC[C@H](NC(=O)CN)C(=O)N[C@@H](CSSC[C@@H](C(N)=O)NC(=O)[C@H](C)NC(=O)[C@H](CC(N)=O)NC(=O)[C@H](CO)NC(=O)[C@H](Cc3c[nH]cn3)NC(=O)[C@H](CCC(=O)O)NC1=O)C(=O)N[C@@H](CO)C(=O)N[C@@H](CC(N)=O)C(=O)N1CCC[C@H]1C(=O)N[C@@H](C(C)C)C(=O)N2 [MII[L15A]] (H-GCCSNPVCHLEHSNAC-NH2; disulfide 2-8, 3-16)
Rat α3β2 nAChR
  Hill slope, α3β2: 0.58±0.08
  pIC50: 7.47
  Ratio IC50 α3β2/IC50 α6/α3β2β3: 37.2
Rat α6/α3β2β3 nAChR
  Hill slope, α6/α3β2β3: 0.75±0.08
  pIC50: 9.04
α4β2 nAChR
  ACh response, percentage of control, Rα4β2: 102.3±5.3 % of control
[1]
  pKi: 9.52

## CC(C)C[C@@H]1NC(=O)[C@H](C)NC(=O)[C@@H]2CSSC[C@H](NC(=O)CN)C(=O)N[C@@H](CSSC[C@@H](C(N)=O)NC(=O)[C@H](CC(C)C)NC(=O)[C@H](CC(N)=O)NC(=O)[C@H](CO)NC(=O)[C@H](Cc3c[nH]cn3)NC(=O)[C@H](CCC(=O)O)NC1=O)C(=O)N[C@@H](C)C(=O)N[C@@H](CC(N)=O)C(=O)N1CCC[C@H]1C(=O)N[C@@H](C(C)C)C(=O)N2 [MII[S4A; H9A]] (H-GCCANPVCALEHSNLC-NH2; disulfide 2-8, 3-16)
Rat α3β2 nAChR
  pIC50: 6.68
  Ratio IC50 α3β2/IC50 α6/α3β2β3: 105
Rat α6/α3β2β3 nAChR
  pIC50: 8.71

## CC(C)C[C@@H]1NC(=O)[C@H](C)NC(=O)[C@@H]2CSSC[C@H](NC(=O)CN)C(=O)N[C@@H](CSSC[C@@H](C(N)=O)NC(=O)[C@H](CC(C)C)NC(=O)[C@H](CC(N)=O)NC(=O)[C@H](CO)NC(=O)[C@H](Cc3c[nH]cn3)NC(=O)[C@H](CCC(=O)O)NC1=O)C(=O)N[C@@H](CO)C(=O)N[C@@H](CC(N)=O)C(=O)N1CCC[C@H]1C(=O)N[C@@H](C(C)C)C(=O)N2 [MII[H9A]] (H-GCCSNPVCALEHSNLC-NH2; disulfide 2-8, 3-16)
Rat α3β2 nAChR
  Hill slope, α3β2: 0.83±0.08
  pIC50: 7.23
  Ratio IC50 α3β2/IC50 α6/α3β2β3: 74.7
Rat α6/α3β2β3 nAChR
  Hill slope, α6/α3β2β3: 0.73±0.08
  pIC50: 9.10
α4β2 nAChR
  ACh response, percentage of control, Rα4β2: 105.8±2.4 % of control
[1]
  pKi: 8.96

## CC(C)C[C@@H]1NC(=O)[C@H](CC(N)=O)NC(=O)[C@H](CO)NC(=O)[C@H](Cc2c[nH]cn2)NC(=O)[C@H](CCC(=O)O)NC(=O)[C@H](CC(C)C)NC(=O)[C@H](Cc2c[nH]cn2)NC(=O)[C@@H]2CSSC[C@H](NC(=O)CN)C(=O)N[C@@H](CSSC[C@@H](C(N)=O)NC1=O)C(=O)N[C@@H](CO)C(=O)N[C@@H](CC(N)=O)C(=O)N[C@@H](C)C(=O)N[C@@H](C(C)C)C(=O)N2 [MII[P6A]] (H-GCCSNAVCHLEHSNLC-NH2; disulfide 2-8, 3-16)
Rat α3β2 nAChR
  pIC50: 5.35
  Ratio IC50 α3β2/IC50 α6/α3β2β3: 17.5
Rat α6/α3β2β3 nAChR
  pIC50: 6.60

## CC(C)C[C@@H]1NC(=O)[C@H](CC(N)=O)NC(=O)[C@H](CO)NC(=O)[C@H](Cc2c[nH]cn2)NC(=O)[C@H](CCC(=O)O)NC(=O)[C@H](CC(C)C)NC(=O)[C@H](Cc2c[nH]cn2)NC(=O)[C@@H]2CSSC[C@H](NC(=O)CN)C(=O)N[C@@H](CSSC[C@@H](C(N)=O)NC1=O)C(=O)N[C@@H](CO)C(=O)N[C@@H](CC(N)=O)C(=O)N1CCC[C@H]1C(=O)N[C@@H](C)C(=O)N2 [MII[V7A]] (H-GCCSNPACHLEHSNLC-NH2; disulfide 2-8, 3-16)
Rat α3β2 nAChR
  pIC50: 8.35
  Ratio IC50 α3β2/IC50 α6/α3β2β3: 0.421
Rat α6/α3β2β3 nAChR
  pIC50: 7.97

## CC(C)C[C@@H]1NC(=O)[C@H](CC(N)=O)NC(=O)[C@H](CO)NC(=O)[C@H](C)NC(=O)[C@H](CCC(=O)O)NC(=O)[C@H](CC(C)C)NC(=O)[C@H](Cc2c[nH]cn2)NC(=O)[C@@H]2CSSC[C@H](NC(=O)CN)C(=O)N[C@@H](CSSC[C@@H](C(N)=O)NC1=O)C(=O)N[C@@H](CO)C(=O)N[C@@H](CC(N)=O)C(=O)N1CCC[C@H]1C(=O)N[C@@H](C(C)C)C(=O)N2 [MII[H12A]] (H-GCCSNPVCHLEASNLC-NH2; disulfide 2-8, 3-16)
Rat α3β2 nAChR
  pIC50: 5.33
  Ratio IC50 α3β2/IC50 α6/α3β2β3: 7.72
Rat α6/α3β2β3 nAChR
  pIC50: 6.22

## CC(C)C[C@@H]1NC(=O)[C@H](CC(N)=O)NC(=O)[C@H](CO)NC(=O)[C@H](Cc2c[nH]cn2)NC(=O)[C@H](CCC(=O)O)NC(=O)[C@H](CC(C)C)NC(=O)[C@H](Cc2c[nH]cn2)NC(=O)[C@@H]2CSSC[C@H](NC(=O)CN)C(=O)N[C@@H](CSSC[C@@H](C(N)=O)NC1=O)C(=O)N[C@@H](C)C(=O)N[C@@H](CC(N)=O)C(=O)N1CCC[C@H]1C(=O)N[C@@H](C(C)C)C(=O)N2 [MII[S4A]] (H-GCCANPVCHLEHSNLC-NH2; disulfide 2-8, 3-16)
Rat α3β2 nAChR
  pIC50: 7.80
  Ratio IC50 α3β2/IC50 α6/α3β2β3: 21.56
Rat α6/α3β2β3 nAChR
  pIC50: 9.13

## CC(C)C[C@@H]1NC(=O)[C@H](CC(N)=O)NC(=O)[C@H](CO)NC(=O)[C@H](Cc2c[nH]cn2)NC(=O)[C@H](CCC(=O)O)NC(=O)[C@H](CC(C)C)NC(=O)[C@H](Cc2c[nH]cn2)NC(=O)[C@@H]2CSSC[C@H](NC(=O)CN)C(=O)N[C@@H](CSSC[C@@H](C(N)=O)NC1=O)C(=O)N[C@@H](CO)C(=O)N[C@@H](C)C(=O)N1CCC[C@H]1C(=O)N[C@@H](C(C)C)C(=O)N2 [MII[N5A]] (H-GCCSAPVCHLEHSNLC-NH2; disulfide 2-8, 3-16)
Rat α3β2 nAChR
  pIC50: < 5.00
  Ratio IC50 α3β2/IC50 α6/α3β2β3: >12.6
Rat α6/α3β2β3 nAChR
  pIC50: 6.10
